Here are results for five molecules from patent US7084174B2, “Administration of isovaleryl L-carnitine to stimulate osteoblastic activity” (Sigma-Tau Industrie Farmaceutiche Riunite S.p.A., priority 2000, dated 2006).

Structures can show the parent of a compound that is named as a salt.

For experiment [1] the following is noted: rat; cited from earlier work.
The subject of experiment [2] is human osteoblasts. Put plainly: Cellular proliferation test. The class given is cell-based. As to conditions: for cells proliferation (number of cells, colorimetric test at 540 nm): human osteoblasts, medium without FCS with BSA, increasing doses, 5 days, FIG. 1 / FIG. 2. Here is the method:
(§1) The differentiated human osteoblasts were prepared starting from bone fragments obtained during surgical operation following the procedure described in Calcif. Tissue Int. 62: 362–365, 1998; and in Calcif. Tissue Int. 37: 453–460, 1985.
(§2) In short, bone fragments were undertaken to enzymatic digestion with collagenase (1 mg/ml) diluted in phosphate buffer in order to remove fibroblasts, haematic endothelial cells or bone marrow cells, if any.
(§3) The fragments so cleaned were maintained in culture in presence of a medium containing 20% of foetal calf serum (FCS) to obtain osteoblasts population for explant.
(§4) The cells so obtained were characterised to verify their osteoblastic phenotype then used for the experiments.
The cellular proliferation test was done growing the cells in 96 well plates, in medium without FCS, and with bovine serum albumin (BSA).
The cells were exposed to increasing doses of L-carnitine fumarate and isovaleryl L-carnitine fumarate. The positive control group was constituted by cells growing in presence of FCS (15%).
Every 24 ore, for 5 days, samples from plates in culture were fixed with a solution of paraformaldehyde at 3%, the cells were stained with crystal-violet at 0.5%, washed to eliminate the excess of stain and a solution of sodium citrate 0.1 M in ethanol was added. The number of the cells contained in the wells was evaluated by colorimetric test at 540 nm.

Experiment [3] relates to human osteoblasts. Put plainly: Production of collagen by incorporation of 3H-proline. The class given is cell-based. The conditions noted are these: FIG. 3. Here is the method: as §1, §2, §3, §4
The collagen production represents a method for the evaluation of the osteoblast activity.
This production was evaluated on semiconfluent cells grown on 24 wells plates, in medium without serum (FCS) containing 1 μCi/well of ^3H-proline, both in the wells of the control and in the wells where were present the tested compounds. After 4 hours of incubation in presence of the tracer the cells were lysed and undertaken to an extraction procedure (Journal of Bone and Mineral Research, 2000; Vol. 15(2); 188–97). […] The radioactivity of the cells, as index of the cells collagen synthesis, was evaluated with a beta-counter.

Experiment [4] concerns osteocalcine. The conditions noted are these: mice, during formation of the bone matrix; cited from earlier work.

On to `C[N+](C)(C)CC(O)CC(=O)[O-]` (racemic) [D,L-carnitine], for which the bone calcium result in experiment [1] is recorded as “increases the bone calcium”.

For `CC(C)CC(=O)O[C@H](CC(=O)[O-])C[N+](C)(C)C` [isovaleryl L-carnitine fumarate], the “cells proliferation compared with L-carnitine fumarate” value in experiment [2] (FIG. 1 versus FIG. 2) is “induces cells proliferation (FIG. 1) in a more potent way”. In experiment [2] (dose 10 times lower than that of L-carnitine fumarate), the “cellular proliferation activity at 10^-3 M compared with L-carnitine fumarate at 10^-2 M” value is on record as “has the same cellular proliferation activity”. The “cells proliferation (number of cells, colorimetric test at 540 nm)” value in experiment [2] is recorded as “promotes cells proliferation”. In addition, in experiment [3] (Student t test), the “production of collagen respect to the same doses of L-carnitine fumarate” value is reported as “favouring activity for the production of collagen in a significant way”. The “production of collagen (3H-proline incorporation) respect to the control sample” value in experiment [3] (semiconfluent cells, medium without serum, 4 hours of incubation with tracer) was “increases the production of collagen in an higher way respect to the control sample”.

With `C[N+](C)(C)C[C@H](O)CC(=O)[O-]` [L-carnitine], the “production of osteocalcine (index of better calcification)” value in experiment [4] is “increase the production of osteocalcine”.

Consider `C[N+](C)(C)C[C@H](O)CC(=O)[O-].O=C(O)/C=C/C(=O)O` [L-carnitine fumarate, reference compound], for which the “cells proliferation (number of cells, colorimetric test at 540 nm)” value in experiment [2] is given as “cells proliferation induced by L-carnitine fumarate”.

Consider `CC(=O)O[C@H](CC(=O)[O-])C[N+](C)(C)C` [acetyl L-carnitine], for which the “production of osteocalcine (index of better calcification)” value in experiment [4] is “reduces the production of this marker”.
